Experimental data taken from US7192983B2, “N-protected/N-substituted-beta-amino hydroxy sulfonates” (G.D. Searle & Co., priority 1995, dated 2007).

Test: Determination of storage stability at ambient temperature (purity by HPLC)
Type: physicochemical
Experimental: 2S-[Bis (phenylmethyl) amino]-1-hydroxy-3-phenylpropyl sulfonic acid, sodium salt (5 grams) was treated with stirring with an aqueous solution of 5 grams of potassium carbonate in 50 mL of water at room temperature. The aqueous solution was extracted once with a 50 mL portion of ethyl acetate. The organic solvent solutions were combined and removed under reduced pressure. The residue was dissolved in the tetrahydrofuran (THF), filtered through a cotton filter plug and the solvent removed under reduced pressure. […] The samples were placed on the column diluted in 90% hexane, 5% isopropanol and 5% tert-butylmethyl ether.
The experiment extended through 61 days with purity determinations made on days 0 (t=0), 3 (t=3), 6 (t=6), 18 (t=18) and 61 (t=61). A sample of the salt was treated with aqueous potassium carbonate and extracted with ethyl acetate on day 0. The ethyl acetate was removed under reduced pressure to provide the aldehyde and this sample was used as a t=0 […] reference standard for the stability determination (“Aldehyde Sample”). The t=0 sample of the aldehyde was then stored at ambient temperature in a capped, brown glass bottle side by side with the stored sample of the salt. The purity of the salt was then measured on days 3 (t=3), 8 (t=8), 15 (t=15) and 21 (t=21).

- % aldehyde remaining (day 8, stored at ambient temperature in capped brown glass bottle): 64%
- % aldehyde remaining (day 15, stored at ambient temperature in capped brown glass bottle): 23%
- % aldehyde remaining (day 18, stored at ambient temperature in capped brown glass bottle): 10%
SMILES: O=C[C@H](Cc1ccccc1)N(Cc1ccccc1)Cc1ccccc1 [Aldehyde Sample, 2S-[bis(phenylmethyl)amino]-3-phenylpropanal]
